Residue numbers refer to the chain shown, from its start.
Assays:
Experiment in all cases: HPTLC autoradiography of metabolites, insect-cell microsomes
Assay type in all cases: biochemical
Conditions in all cases: NADPH, pH 7.5, 25 C, co-expressed reductase and b5; labelled compound; product 4'-HO-permethrin
CYP9M6v2 = biological target: T1, CYP9M6v2 (Aedes aegypti, UniProt X5HYQ8)
T1 construct: full-length cDNA from SP strain (533 residues), baculovirus/Sf9 (expressSF+) microsomes, co-expressed with A. aegypti P450 reductase and cytochrome b5; with NADPH--cytochrome P450 reductase; Cytochrome b5
T1 sequence (X5HYQ8 1-533): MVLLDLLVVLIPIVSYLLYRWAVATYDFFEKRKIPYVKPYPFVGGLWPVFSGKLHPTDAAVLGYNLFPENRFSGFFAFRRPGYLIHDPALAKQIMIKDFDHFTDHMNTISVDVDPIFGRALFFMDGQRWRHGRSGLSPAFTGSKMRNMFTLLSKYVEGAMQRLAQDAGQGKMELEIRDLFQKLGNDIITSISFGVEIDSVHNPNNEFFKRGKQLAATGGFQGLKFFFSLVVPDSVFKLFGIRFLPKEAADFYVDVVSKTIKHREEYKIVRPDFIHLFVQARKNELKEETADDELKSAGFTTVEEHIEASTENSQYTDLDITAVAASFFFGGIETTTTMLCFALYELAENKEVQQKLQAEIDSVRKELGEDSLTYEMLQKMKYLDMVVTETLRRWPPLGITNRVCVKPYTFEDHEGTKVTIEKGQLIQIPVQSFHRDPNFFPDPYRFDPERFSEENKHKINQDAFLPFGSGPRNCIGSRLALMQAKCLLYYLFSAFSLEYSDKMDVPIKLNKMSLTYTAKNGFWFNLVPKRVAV

CYP6BB2 = biological target: T2, CYP6BB2 (Aedes aegypti, UniProt Q16F58)
T2 construct: gene 5565578; full-length cDNA from SP strain, baculovirus/Sf9 (expressSF+) microsomes, co-expressed with A. aegypti P450 reductase and cytochrome b5; with NADPH--cytochrome P450 reductase; Cytochrome b5
T2 sequence (Q16F58 1-507): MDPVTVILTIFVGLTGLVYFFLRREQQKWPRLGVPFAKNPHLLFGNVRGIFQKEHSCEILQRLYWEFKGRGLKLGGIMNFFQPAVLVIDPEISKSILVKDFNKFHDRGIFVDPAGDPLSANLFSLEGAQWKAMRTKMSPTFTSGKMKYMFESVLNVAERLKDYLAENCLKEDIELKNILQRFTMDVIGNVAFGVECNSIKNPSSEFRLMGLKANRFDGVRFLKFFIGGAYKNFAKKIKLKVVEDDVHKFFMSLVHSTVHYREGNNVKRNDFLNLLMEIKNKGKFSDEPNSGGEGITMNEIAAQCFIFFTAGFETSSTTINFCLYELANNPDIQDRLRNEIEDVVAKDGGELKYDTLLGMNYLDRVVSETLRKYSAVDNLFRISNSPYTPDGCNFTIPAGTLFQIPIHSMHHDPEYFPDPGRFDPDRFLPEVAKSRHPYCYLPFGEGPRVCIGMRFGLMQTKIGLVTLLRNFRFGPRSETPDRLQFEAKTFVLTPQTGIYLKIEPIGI

CYP9M6v1 = biological target: T3, CYP9M6v1 (Aedes aegypti, UniProt X5I1U9)
T3 construct: full-length cDNA from SP strain (533 residues), baculovirus/Sf9 (expressSF+) microsomes, co-expressed with A. aegypti P450 reductase and cytochrome b5; with NADPH--cytochrome P450 reductase; Cytochrome b5
T3 sequence (X5I1U9 1-533): T1 sequence (X5HYQ8 1-533) with G170R, I176V, E348G, D370G, M376V, V527L, R530K

Structure (SMILES): CC1(C)C(C=C(Cl)Cl)C1C(=O)OCc1cccc(Oc2ccccc2)c1 (stereo not drawn) [[14C]-(1RS)-trans-permethrin]
- HPTLC autoradiography of metabolites, insect-cell microsomes (CYP9M6v2): Both CYP9M6v1 and CYP9M6v2 demonstrated relatively low but consistent permethrin metabolism
- HPTLC autoradiography of metabolites, insect-cell microsomes (CYP6BB2): CYP6BB2 exhibited strong metabolic activity for permethrin
- HPTLC autoradiography of metabolites, insect-cell microsomes (CYP9M6v1): Both CYP9M6v1 and CYP9M6v2 demonstrated relatively low but consistent permethrin metabolism
